The subject of the assay is HeLa cells stably expressing centrin1-GFP. As to the kind of experiment: Nocodazole treatment of premitotic cells on [L] fibronectin micropatterns (centrosome separation, cell rounding, spindle orientation). The assay is classed as cell-based, human. Particulars: for Distribution of spindle orientations after nocodazole wash-out: after wash-out of 10^−7 M nocodazole, [L] patterns, versus non-treated cells. On the procedure: HeLa, human epithelial cells, stably expressing centrin1-GFP (Piel et al. J. Cell Biol. 149, 317-329 (2000), were cultured in Dulbecco Modified Eagle Medium with 10% foetal calf serum, 1% penicillin and streptomycin, and 1% glutamine at 37° C. Cells were synchronised using a double thymidine block and then removed from their flask using […], 10 minutes at 37° C. After removing the […] by centrifugation, cells were resuspended in DMEM with 1% FCS and deposited on the printed coverslip at a density of 10^4 cells/cm^2. The inventors used an inverted Leica DMIRBE microscope with an heated and motorized stage combined with a home-made plastic cell chamber to hold the printed glass coverslip, which was covered by a porous membrane allowing CO2 buffering at pH-7.4. Metamorph software (Universal Imaging) was used for image acquisition. Numerous cell divisions were followed using a time-lapse phase contrast on a multi-fields acquisition at a frame rate of one picture every 3 minutes with a 10× magnitude objective. Centrosome movements were followed during mitosis with a 63× apochromat objective lens (Leica) using fluorescent Z acquisitions through a green filter and a phase contrast picture of the cell bottom every 5 minutes. A software has been developed. This software was able to automatically recognise a single fluorescent micropattern within a field and detect the presence of a single cell attached to it. Individual cell divisions were extracted from the 10× phase contrast time-lapse recordings and every picture automatically segmented using a wavelet decomposition and fitted with an ellipse (FIG. 1b). The moment of cell elongation in anaphase was precisely detected, as the shape factor, defined as the ellipse length ratio, suddenly dropped from more than 0.9 to less than 0.6 (FIG. 1c). The angle between the major axis of the ellipse, corresponding to spindle orientation, and the vertical reference of the pattern oriented as shown on FIG. 2 was then recorded. The position of the centre of the round mitotic cell with respect to the pattern was also automatically recorded 6 minutes before anaphase.[…]. The mechanisms by which the premitotic actin network is remodeled during mitotic cortical retraction and the correlative formation of actin-rich retraction fibers are not fully understood. In order to address whether spindle assembly had to take place during the remodelling of the actin network to be correctly oriented, centrosomes were prevented from separating during cell retraction on [L] patterns by treating premitotic cells with 10^-7 M nocodazole during one hour. […] After nocodazole washout, centrosomes separated and formed a bipolar spindle (FIG. 4C). […] RFs are good candidates for guiding spindle orientation as they are maintained despite nocodazole treatment.

The mark [1] stands for this setting: 10^−7 M nocodazole during one hour, premitotic cells on [L] patterns.

Turning to `COC(=O)Nc1nc2ccc(C(=O)c3cccs3)cc2[nH]1` [nocodazole], the “Distribution of spindle orientations after nocodazole wash-out” value is given as “still preferentially orientated parallel to the hypotenuse of the triangle”. Further, under setting [1], the “Effect on cell rounding” value was “did not block cell rounding” and the “Effect on mitosis / centrosome separation” value is on record as “blocked cells in metaphase with unseparated centrosomes”. The “Distribution of spindle orientations after nocodazole wash-out” value (listed as NZ) is “spindles are still able to mainly orient in round cell bodies as in control cells”. Moreover, for the setting “nocodazole-treated mitotic cells on [L] patterns”, the “Retracting fibers (RFs) under nocodazole treatment” value is “maintained”.
